The results in this text go back to patent publication US8198033B2, “Methods and materials for observing apoptosis” (Genentech, Inc., priority 2006, dated 2012).

Where a SMILES comes first, the peptide text is derived from it. The star is where a group is joined. Cbz = O=C(OCc1ccccc1)*; CH2F = FC*

Holding throughout (assay type): cell-based, human
Assay [1] relates to BJAB and Colo205 cells. The assay can be described thus: Transferrin (Tf) endocytosis rate by flow cytometry. To be noted: BJAB cells, zVAD-fmk 30 min then 4 hr crosslinked Apo2L/TRAIL. How it is done:
The cells were then equilibrated on ice for 30 min with Alexa-647-conjugated Tf (^647TF) and uptake at 37° C. was measured by flow cytometry. Each endocytosis rate was derived from the slope of the initial linear phase of a 4 min uptake kinetics plot (a, inset). […] Rates were normalized to the DMSO treated sample (±SEM).
Sedimented cells were resuspended in cold 2% paraformaldehyde/PBS and mean fluorescence intensity of 10,000 cells quantified with a Coulter Epics Elite-ESP flow cytometer (Hialeah, Fla.). Endocytic rates were determined from linear slopes of steady-state internal/surface plots (see, e.g., Wiley, H. S. et. al, J Biol Chem 257, 4222-9 (1982)). For temperature-shift experiments, ice binding incubations were avoided. Instead, cells were preconditioned for 20 min and maintained at 30° C. or 38° C. in binding medium, incubated an additional 0 (control) or 20 min with ^647Tf, chilled on ice for 30 min, and processed for flow cytometry to determine internal/surface ^647Tf ratios.
On the technique in general: Flow cytometry measures light scatter and fluorescence of single cells or particles in a stream.

Assay [2] relates to AP2α, AP1/2β, clathrin heavy chain (CHC), dynamin. As to the kind of experiment: Immunoblot for cleavage of clathrin-dependent endocytosis machinery and caspases in cell lysates. How it is done: (b) Colo205 cells were treated as in (a) and analyzed by immunoblot for processing of specific components of various types of clathrin-associated endocytic trafficking.
Open arrows indicate cleavage products and solid arrows indicate full-length proteins.
(c) BJAB cells were treated with crosslinked Apo2L/TRAIL and processing of dynamin was determined by immunoblot.
The cells were analyzed by immunoblot for processing of caspase-8, caspase-9, caspase-3, and AP2α.
Human colorectal adenocarcinoma Colo205 cells human B cell lymphoma BJAB cells and human T cell carcinoma Jurkat wild type cells (A3 clone), FADD-deficient (E1) and caspase-8-deficient (I9.3) were cultured in RPMI 1640+10% fetal bovine serum (FBS)+2 mM glutamine+1000 U/ml Penicillin-Streptomycin (Life Technologies). Human cervical carcinoma HeLa-M cells human breast adenocarcinoma MCF7 and human colorectal adenocarcinomas HCT15, HCT8, SW948, Colo320, human fibrosarcoma HT180 (ATCC), HCT116 Bax(−/−), HCT116 Bax(+/−) were grown in 50:50 Dulbecco's modified Eagle's and FK12 medium+10% FBS+1000 U/ml Penicillin-Streptomycin. cDNA clones encoding temperature-sensitive dynamins were the G273D mutant and dominant negative K44A mutant dynamin-1 (Dyn^G273D and Dyn^K44A, respectively). Dyn^G273D was expressed from pHUSH-ProEx, a single retroviral plasmid tetracycline-inducible expression system constructed at Genentech. The cDNA was first cloned into a shuttle plasmid containing a CMV enhancer-promoter sequence with two copies of the tetracycline operator TetO2, then transferred via in vitro phage lamda-based recombination, or Gateway® technology (Invitrogen, Carlsbad), to a Moloney murine leukemia virus backbone vector in which the wild type Tet repressor is driven by a separate β-actin promoter and followed by an internal ribosomal entry sequence and puromycin selection cassette. Dyn^K44A was expressed from the 2-vector tetracycline-inducible retroviral expression system, pRevTet-On/pRev-Tre (Clontech), using serial infections. Retroviral vectors were transfected into Phoenix amphotropic Moloney Murine Leukemia Virus packaging cells using Lipofectamine 2000 […]. Retroviral particles were harvested and used in HeLa-M and BJAB cell infections as described previously (Simpson et al. J Cell Biol 137, 835-45, 1997). Dyn^G273 infected cells were puromycin selected (2-3 μg/ml) for 1-2 weeks and cloned either by manually picking individual HeLa-M colonies or by FACS sorting of resistant BJAB cells (gated for exclusion of propidium iodide) and single cell seeding in 96-well cell culture plates using an EPICS ELITE-ESP equipped with an Autoclone device (Coulter, Hialeah, Fla.). Cell clones were screened for uniformity of doxycycline inducible dynamin-1 expression by immunofluorescence microscopy. Dyn^K44A-infected cells were hygromycin B (400 μg/ml) and G418 (1 mg/ml) selected for 1-2 weeks. Induction with doxycycline (1 μg/ml) was performed at 32° C. for 72 hr as described previously (Damke et al. J Cell Biol 131, 69-80 1995). Vincristine sulfate (#T-117), Adriamycin.HCL (GR-319) were purchased from Biomol, tetracycline-free FBS from Hyclone, Puromycin from Clontech and Doxycyclin from Sigma. zVAD-fmk (asN-benzyloxycarbonyl-Val-Ala-Asp-fluoromethylketone) was obtained from MD Biosciences (#FK-009). […]
A general note: In western blotting, separated proteins are transferred to a membrane and probed.

Assay [3] deals with BJAB or Colo205 cells. As to the kind of experiment: Immunoblot for cleavage of clathrin-pathway components after DNA-damaging agents. The procedure: BJAB or Colo205 cells were treated with vinblastine, or adriamycin for the indicated time and analyzed by immunoblot as in FIG. 1.
Human colorectal adenocarcinoma Colo205 cells human B cell lymphoma BJAB cells and human T cell carcinoma Jurkat wild type cells (A3 clone), FADD-deficient (E1) and caspase-8-deficient (I9.3) were cultured in RPMI 1640+10% fetal bovine serum (FBS)+2 mM glutamine+1000 U/ml Penicillin-Streptomycin (Life Technologies). Human cervical carcinoma HeLa-M cells human breast adenocarcinoma MCF7 and human colorectal adenocarcinomas HCT15, HCT8, SW948, Colo320, human fibrosarcoma HT180 (ATCC), HCT116 Bax(−/−), HCT116 Bax(+/−) were grown in 50:50 Dulbecco's modified Eagle's and FK12 medium+10% FBS+1000 U/ml Penicillin-Streptomycin. cDNA clones encoding temperature-sensitive dynamins were the G273D mutant and dominant negative K44A mutant dynamin-1 (Dyn^G273D and Dyn^K44A, respectively). Dyn^G273D was expressed from pHUSH-ProEx, a single retroviral plasmid tetracycline-inducible expression system constructed at Genentech. […]

Assay [4] deals with DISC. The assay can be described thus: DISC immunoprecipitation. To be noted: BJAB cells chilled on ice. How it is done:
(a) BJAB cells were equilibrated with ^647Tf on ice, incubated for the indicated uptake interval at 37° C. or on ice, then fluorescence quantified by flow cytometry. […] DISC-associated FADD and caspase-8 were visualized by immunoblot. (c, d) Dyn^G273D-transduced BJAB cells were treated with buffer (No Dox) or doxycyline (Dox) and shifted to 38° C. for 20 min to inactivate dynamin. The cells were treated with crosslinked Apo2L/TRAIL for the indicated amounts of time and the DISC was immunoprecipitated. DISC-associated FADD and caspase-8 were visualized by immunoblot (c) or DISC-associated caspase-8 activity was measured as described previously (Sharp et al. J Biol Chem 280, 19401-409, 2005).
BJAB cells (1×10^7 per time point) were treated with Flag-Apo2L/TRAIL cross-linked by anti-FLAG M2 Abs, collected, lysed, immunoprecipitated and the DISC was analyzed as described (see, e.g., Kischkel, F. C. et al., Immunity 12, 611-20 (2000)).

As for `CC(C)[C@H](NC(=O)OCc1ccccc1)C(=O)N[C@@H](C)C(=O)N[C@@H](CC(=O)O)C(=O)CF` [zVAD-fmk, N-benzyloxycarbonyl-Val-Ala-Asp-fluoromethylketone, reference compound] (Cbz-Val-Ala-Asp-CH2F), in assay [1], the “Effect of pretreatment on Apo2L/TRAIL inhibition of Tf endocytosis” value is on record as “substantially reversed this inhibition”. Moreover, in assay [2] (BJAB cells, zVAD-fmk 20 μM 30 min then crosslinked Apo2L/TRAIL 1 μg/mL), the “Effect of pretreatment on ligand-induced cleavage of AP2α and CHC” value is “prevented cleavage of AP2α and CHC”.
With `COc1cccc2c1C(=O)c1c(O)c3c(c(O)c1C2=O)C[C@@](O)(C(=O)CO)C[C@@H]3O[C@H]1C[C@H](N)[C@H](O)[C@H](C)O1` [adriamycin], in assay [3], the “Cleavage of components of the clathrin machinery” value is “induced cleavage of components of the clathrin machinery, albeit with much slower kinetics than DR ligands”.
On the same count and under the same terms, then `CC[C@]1(O)C[C@@H]2CN(CCc3c([nH]c4ccccc34)[C@@](C(=O)OC)(c3cc4c(cc3OC)N(C)[C@H]3[C@@](O)(C(=O)OC)[C@H](OC(C)=O)[C@]5(CC)C=CCN6CC[C@]43[C@@H]65)C2)C1` [vinblastine], with “induced cleavage of components of the clathrin machinery, albeit with much slower kinetics than DR ligands”.

B1: FasL: Flag-tagged FasL, crosslinked; SEQ ID NO: 9 (protein, listed as Homo sapiens)
chain: MQQPFNYPYPQIYWVDSSASSPWAPPGTVLPCPTSVPRRPGQRRPPPPPPPPPLPPPPPPPPLPPLPLPPLKKRGNHSTGLCLLVMFFMVLVALVGLGLGMFQLFHLQKELAELRESTSQMHTASSLEKQIGHPSPPPEKKELRKVAHLTGKSNSRSMPLEWEDTYGIVLLSGVKYKKGGLVINETGLYFVYSKVYFRGQSCNNLPLSHKVYMRNSKYPQDLVMMEGKMMSYCTTGQMWARSSYLGAVFNLTSADHLYVNVSELSLVNFEESQTFFGLYKL
modifications: Flag tag, crosslinked
In the case of B1, the “Cleavage of AP2α and CHC” value in assay [2] (BJAB cells, crosslinked ligand) was “stimulated cleavage of AP2α and CHC in BJAB cells comparably to Apo2L/TRAIL”; in assay [2] (wt Jurkat T cells), “induced cleavage of AP2α and CHC”. In assay [2] (caspase-8-deficient or FADD-deficient mutant Jurkat cell lines), the “Processing of AP2α and CHC” value is given as “neither ligand stimulated processing of these targets”. Besides, in assay [4], the “DISC assembly with Tf endocytosis blocked” value was “still recruited FADD and caspase-8 to their respective receptors and processed caspase-8”.
